# Columns and labels:
# protein synthesis = experiment: Effect on protein synthesis; assay type: cell-based
# P. falciparum schizonts = experiment: Schizont maturation, merozoite invasion and ring viability in the presence of drug; assay type: cell-based, Plasmodium falciparum; details: for fate of schizonts greater than 40 h in the cycle: in the presence of 5 μM drug
# [1] = tested on: P. falciparum sphingomyelin synthase; experiment: Inhibition of plasmodial sphingomyelin biosynthesis in intact infected erythrocytes (C6-NBD-ceramide to C6-NBD-sphingomyelin); assay type: cell-based, Plasmodium falciparum; details: for [%] inhibition of sphingomyelin biosynthetic activity: 5 μM compound; for effect on sphingomyelin synthase enzyme activity: 5 μM compound (Example 3)
# Experimental: 1×10^8 infected cells 24 h after invasion were washed serum-free in RPMI 1640 and preincubated for thirty min at 37° C. in 1 ml of RPMI 1640 containing 0-5 μM or 0-500 μM of PPMP. (C6-NBD-ceramide (N-[7-(4-nitrobenzo-2-oxa-1,3-diazide)]-6-aminocaproyl-D-erythro-sphingosine) was added to each sample at a final concentration of 5 μM, the samples further incubated for 30 min at 37° C. and cellular lipids extracted. C6-NBD-sphingomyelin was resolved by TLC and quantitated by fluorescence spectrophotometry as described previously. Bligh, E. G. and Dyer, W. Y. (1959) A rapid method for total lipid extraction and purification., Can. J. Biochem. Physiol. 37: 911-917. Haldar, K., Uyetake, L., Ahori, N., Elmendorf, H. G. and Lu, W-1. (1991) The accumulation and metabolism of a fluorescent ceramide derivative in Plasmodium falciparum-infected erythrocytes., Mo. Biochem. Parasitol. 49: 143-156. Elmendorf, H. G. and Haldar, K. (1994) Plasmodium falciparum exports the Golgi marker sphingomyelin synthase into a tubovesicular network in the cytoplasm of mature erythrocytes., J. Cell Biol. 124: 449-462. Each value obtained represented the mean of triplicate determinations from five experiments. The arrow bars indicate the standard deviations. The results are depicted in FIG. 1.
# (§1) P. falciparum strain FCB was used for all experiments and cultured in vitro in according to a modification of the method of Trager and Jensen left off. Trager, W. and Jensen, J. B. (1976) Human malaria in continuous culture., Science (Wash. D.C.) 193: 673-675 Haldar, K., Ferguson, M. A. J. and Cross, G. A. M. (1985) Acylation of a Plasmodium falciparum merozoite surface antigen via sn-1, 2-diacyl glycerol. J. Biol. Chem. 260; 4969-4974 The culture medium contained RPMI 1640 supplemented with 25 Mm hepes, Ph 7.4/[…]/92 μM hypoxanthine/0.18% sodium bicarbonate/25 μM gentamicin and 10% AB^+ human sera. The parasites were grown in A^+ erythrocytes at 2.5-5% hematocrit. Parasite cultures were synchronized by separation of the early and late stages on a Percoll gradient. The subsequent reincubation of these stages in culture were used to obtain cells 12-24h in the life cycle. Inhibition of sphingomyelin biosynthetic activity using 5 μM of the various compounds was carried out as described in Example 1. 5 μM of the various compounds were added to 0-12 h rings in the culture medium and cells were examined by Giemsa staining after 24 h.
# DNA synthesis = experiment: Effect on DNA synthesis; assay type: cell-based
# P. falciparum strain FCB = experiment: Inhibition of intraerythrocytic growth in culture (Giemsa staining after 24 h); assay type: cell-based, Plasmodium falciparum; details: 5 μM compound added to 0-12 h rings
# From the text: as §1
# [2] = tested on: tubovesicular membrane reticulum (TVM) of P. falciparum-infected erythrocytes; experiment: Tubovesicular membrane (TVM) morphology by confocal microscopy with C5-DMB-ceramide; assay type: cell-based, Plasmodium falciparum; details: 5 μM PPMP; C5 DMB-ceramide staining; 240 optical sections, 20 cells
# Experimental: Schizont-stage parasites isolated over Percoll were allowed to invade in the presence of RPMI 1640 containing 10% human serum or in the presence of RPMI 1640 containing 10% human serum and 5 μM PPMP. 1×10^8 infected erythrocytes of the appropriate stage were incubated in 1 ml of RPMI 1640 supplemented with 2 mg/ml defatted BSA and 20 μM C5 -DMB-ceramide. Cells were washed and fixed as described in Example 5. Sequential micrographs were taken on a custom made laser confocal microscope at 400 nm intervals along the Z axis. Raw data were processed as described previously.
# [3] = tested on: P. falciparum sphingomyelin synthase; experiment: Inhibition of sphingomyelin biosynthesis in hypotonically lysed infected erythrocytes and fractions; assay type: biochemical, Plasmodium falciparum
# Experimental: Cells were washed serum-free in PBS and intact cells were incubated in PBS. Cells were lysed in 10 volumes of hypotonic buffer. Pellets and supernatants were separated by centrifugation at 10^4 ×G for 10 min at 4° C. Inhibition of sphingomyelin biosynthetic activity was carried out as described in Example 1. Glutamate dehydrogenase, a parasite cytosolic activity, was assayed using 10 μM alpha-ketoglutarate and 0.1 μM NADPH for 1 h at 37° C. by measuring the absorption at 340 nm in a spectrophotometer. The following table indicates the results
# P. falciparum = experiment: Intraerythrocytic development in long term culture, parasitemia over consecutive cycles; assay type: cell-based, Plasmodium falciparum
# Experimental: Synchronized cultures 12 h after invasion were subjected to different concentrations of PPMP. Parasitemias of drug-treated cultures were determined at various time points during two intraerythrocytic cycles and compared to cells grown in the absence of drug.
# The effect of the single lipid analogs to inhibit parasite development in long term culture in consecutive cycles of the parasite growth were investigated. The studies were initiated with synchronized, young rings (0-12 h) at 10% parasitemia. In order to ensure healthy growth of the malaria parasite in vitro, the parasitemias of the cultures are not allowed to exceed 10%. Yet under normal conditions a 3-6 fold increase in parasitemias is detected with each round of invasion: thus for each new cycle, the cultures were diluted 4-fold into fresh erythrocytes in the absence or presence of the drug. […] The lowest effective, killing concentration of PDMP over three cycles of growth is 1.0 μM.
smiles,measurement,setting,value
"CCCCCCCCCC(=O)N[C@H](CN1CCOCC1)[C@H](O)c1ccccc1 (relative stereo) [PDMP, dl-threo-1-phenyl-2-decanoylamino-3-morpholino-1-propanol]",inhibition of protein synthesis,protein synthesis,not inhibitory
same,fate of schizonts greater than 40 h in the cycle,P. falciparum schizonts,mature and rupture
same,[%] inhibition of sphingomyelin biosynthetic activity,[1]; infected erythrocytes,31%
same,inhibition of DNA synthesis,DNA synthesis,not inhibitory
CCN(CC)CCO[C@H]1CC[C@@]2(C)C(=CC[C@@H]3[C@@H]2CC[C@]2(C)C(=O)CC[C@@H]32)C1 [U 18666 A],effect on sphingomyelin synthase enzyme activity,[1],no effect
same,[%] inhibition of sphingomyelin biosynthetic activity,[1]; infected erythrocytes,0%
CCCCCCCCCCCCC/C=C/[C@@H](O)[C@@H](N)CO [sphingosine],effect on sphingomyelin synthase enzyme activity,[1],no effect
same,[%] inhibition of sphingomyelin biosynthetic activity,[1]; infected erythrocytes,0%
CCCCCCCCCCCCCCCCCCN [stearylamine],effect on sphingomyelin synthase enzyme activity,[1],no effect
same,[%] inhibition of sphingomyelin biosynthetic activity,[1]; infected erythrocytes,0%
CCCCCCCCCCCCCCC[C@H](O)[C@@H](N)CO (racemic) [dl-dihydrosphingosine],[%] inhibition of growth,P. falciparum strain FCB,8%
same,effect on sphingomyelin synthase enzyme activity,[1],no effect
same,[%] inhibition of sphingomyelin biosynthetic activity,[1]; infected erythrocytes,4%
"CCCCCCCCCCCCCCCC(=O)N[C@H](CN1CCOCC1)[C@H](O)c1ccccc1 (relative stereo) [PPMP, dl-threo-1-phenyl-2-palmitoylamino-3-morpholino-1-propanol]",TVM morphology of rings formed in the presence of drug,[2],markedly devoid of tubular connections
same,effect on schizont maturation or merozoite invasion into erythrocytes,P. falciparum schizonts; 5 μM PPMP,not to block
same,fate of schizonts greater than 40 h in the cycle,P. falciparum schizonts,mature and rupture
same,development of rings after being washed free of the drug,P. falciparum schizonts; rings formed in 5 μM PPMP,developed normally
same,[%] inhibition of sphingomyelin biosynthetic activity,[1]; infected erythrocytes,36%
same,total cellular sphingomyelin synthase activity inhibited,"[1]; 500 μM PPMP, infected erythrocytes",80-90%
same,change of sphingomyelin synthase activity,"[1]; 0.05-0.5 μM PPMP, infected erythrocytes","initial, rapid decrease"
same,average inhibition of sphingomyelin synthase activity,"[1]; 1-5 μM PPMP, infected erythrocytes",35%
same,concentration at which the sensitive pool of sphingomyelin synthase activity is completely inhibited,[1]; infected erythrocytes,1 to 5 µM
same,inhibition of sphingomyelin biosynthesis at 5 μM PPMP [%],"[1]; intact cells, 5 μM PPMP",35%
same,inhibition of sphingomyelin biosynthesis at 5 μM PPMP [%],[3]; hypotonic lysates,33%
same,inhibition of sphingomyelin biosynthesis at 5 μM PPMP [%],[3]; pellet of lysate (10^4 xG),30%
same,inhibition of sphingomyelin biosynthesis at 5 μM PPMP [%],[3]; supernatant of lysate (10^4 xG),3%
same,effect on development of trophozoite stage parasites,P. falciparum,blocks
same,relative efficacy in long term growth inhibition,P. falciparum,more effective than PDMP
same,effect on rings in their first cycle growth,P. falciparum; 5 μM drug,completely inhibits
same,development through the first cycle,P. falciparum; concentrations as low as 0.05 μM,do not stop development through the first cycle
CN(C)CCCN1c2ccccc2CCc2ccccc21 [imipramine],effect on sphingomyelin synthase enzyme activity,[1],no effect
same,[%] inhibition of sphingomyelin biosynthetic activity,[1]; infected erythrocytes,0%
CCCCCCCCCC(=O)N[C@@H](CN1CCOCC1)[C@H](O)c1ccccc1 (relative stereo) [dl-erythro-PDMP],effect on sphingomyelin synthase enzyme activity,[1],no effect
same,[%] inhibition of sphingomyelin biosynthetic activity,[1]; infected erythrocytes,3%

# — patent publication US5976781A, “Determining plasmodium in blood by sphingomyelin synthase activity” (The Board of Trustees of the Leland Stanford Junior …, priority 1995, dated 1999)
